Test results from article PMC5513037, “Examining the influence of specificity ligands and ATP-competitive ligands on the overall effectiveness of bivalent kinase inhibitors” (Proteome Science, 2017).

Target: T1, TAF1L (Homo sapiens, UniProt Q8IZX4)
T1 construct: endogenous in cells; host or cells: K562
Assay: KAM-matrix competition in K562 lysate;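 further: median log10 fold change of treatment over DMSO control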
Type: binding
Settings: relative to 0 uM KAM = 0
Description: Supplement 12953_2017_125_MOESM1_ESM.zip/MS_Supp Info.xlsx, sheet "KAM" | column: 1 uM KAM; 0.01 uM KAM

T1 sequence (Q8IZX4 whole entry): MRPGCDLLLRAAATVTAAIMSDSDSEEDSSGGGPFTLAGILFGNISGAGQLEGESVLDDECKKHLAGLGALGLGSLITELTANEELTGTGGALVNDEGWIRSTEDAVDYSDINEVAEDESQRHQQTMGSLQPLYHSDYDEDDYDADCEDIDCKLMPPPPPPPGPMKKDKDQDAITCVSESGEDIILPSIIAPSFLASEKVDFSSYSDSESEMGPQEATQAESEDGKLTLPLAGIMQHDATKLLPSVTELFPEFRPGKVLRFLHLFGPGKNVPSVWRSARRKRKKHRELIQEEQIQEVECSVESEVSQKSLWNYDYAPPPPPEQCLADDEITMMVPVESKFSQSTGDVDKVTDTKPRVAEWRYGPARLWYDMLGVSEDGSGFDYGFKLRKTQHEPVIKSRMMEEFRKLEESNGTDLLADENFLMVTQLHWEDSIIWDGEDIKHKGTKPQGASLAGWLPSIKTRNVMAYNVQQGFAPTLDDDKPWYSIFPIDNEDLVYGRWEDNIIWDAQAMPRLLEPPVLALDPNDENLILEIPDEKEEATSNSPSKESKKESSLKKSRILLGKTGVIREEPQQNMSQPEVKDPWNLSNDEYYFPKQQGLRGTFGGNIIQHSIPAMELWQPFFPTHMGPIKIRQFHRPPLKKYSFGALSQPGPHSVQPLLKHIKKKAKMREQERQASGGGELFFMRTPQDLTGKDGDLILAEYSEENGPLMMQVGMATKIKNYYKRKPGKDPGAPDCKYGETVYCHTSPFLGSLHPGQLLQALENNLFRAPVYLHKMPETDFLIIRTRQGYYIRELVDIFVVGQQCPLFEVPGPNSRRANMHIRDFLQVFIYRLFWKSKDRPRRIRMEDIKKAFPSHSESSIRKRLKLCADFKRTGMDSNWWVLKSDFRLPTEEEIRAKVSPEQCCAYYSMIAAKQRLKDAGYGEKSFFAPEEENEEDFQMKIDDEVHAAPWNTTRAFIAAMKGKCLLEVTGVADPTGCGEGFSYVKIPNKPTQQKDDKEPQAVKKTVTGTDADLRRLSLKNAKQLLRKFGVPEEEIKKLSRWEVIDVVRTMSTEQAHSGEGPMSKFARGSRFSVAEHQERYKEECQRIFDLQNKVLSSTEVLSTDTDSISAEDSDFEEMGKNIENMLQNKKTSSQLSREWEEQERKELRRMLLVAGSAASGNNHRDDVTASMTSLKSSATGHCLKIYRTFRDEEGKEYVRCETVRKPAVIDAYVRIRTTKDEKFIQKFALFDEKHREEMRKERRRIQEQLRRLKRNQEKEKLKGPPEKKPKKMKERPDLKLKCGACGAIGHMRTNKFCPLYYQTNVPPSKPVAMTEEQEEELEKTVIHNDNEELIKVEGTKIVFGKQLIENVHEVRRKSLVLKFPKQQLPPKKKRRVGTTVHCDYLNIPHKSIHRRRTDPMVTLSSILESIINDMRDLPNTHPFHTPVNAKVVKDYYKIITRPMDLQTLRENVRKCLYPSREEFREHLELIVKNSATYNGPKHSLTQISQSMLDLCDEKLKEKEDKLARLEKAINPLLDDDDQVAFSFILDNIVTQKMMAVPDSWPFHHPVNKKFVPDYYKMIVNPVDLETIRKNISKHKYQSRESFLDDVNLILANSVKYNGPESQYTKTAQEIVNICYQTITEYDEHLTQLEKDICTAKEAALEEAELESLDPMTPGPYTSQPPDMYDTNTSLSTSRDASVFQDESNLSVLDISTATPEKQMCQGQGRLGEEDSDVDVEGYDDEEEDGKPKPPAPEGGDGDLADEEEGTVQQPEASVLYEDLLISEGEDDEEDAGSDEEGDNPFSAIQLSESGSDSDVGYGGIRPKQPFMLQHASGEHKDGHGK

## N#CCc1ccc(Nc2nc(NCCCN)cc(Nc3cc(C4CC4)[nH]n3)n2)cc1 [KAM]
  0.01 uM KAM: 0.1793
  1 uM KAM: -0.2683
